Data reported in patent US20220054494A1, “METHODS FOR TREATING BLADDER AND URETHRA DYSFUNCTION AND DISEASE” (University of Pittsburgh - Of the Commonwealth System of …, priority 2019, published 2022).
“Also recorded” adds a separate entry of the source.

What was measured:
[1] = system: p16; assay: Western immunoblotting, senescence marker p16; assay type: in vivo, rat
Procedure: Western immunoblotting and transmission electron microscopy: Following these testing paradigms, rats were deeply anesthetized, bladders were removed, and one half of each bladder (using the smooth muscle layer) was homogenized using Lysing Matrix D in a FASTPREP-24™ instrument (MP BIOMEDICALS™, Solon, Ohio) in HBSS (5 mM KCl, 0.3 mM KH2PO4, 138 mM NaCl, 4 mM NaHO3, 0.3 mM Na2HCO3, 0.3 mM Na2HPO4, 5.6 mM glucose and 10 mM Hepes, pH 7.4) containing complete protease inhibitor cocktail (1 tablet/10 ml, ROCHE™, Indianapolis, Ind.) and phosphatase inhibitor cocktail (SIGMA®, 1:100). Whole rat kidney was also homogenized using the same procedure. After centrifugation (13000 rpm; 15 min at 4° C.), the membrane protein fraction was prepared by suspending the membrane pellets in lysis buffer containing 0.3 M NaCl, 50 mM Tris-HCl (pH 7.6), 0.5% Triton X-100, and the same concentration of protease inhibitors as above. […] The protein concentrations of the combined supernatants were determined using the PIERCE™ BCA protein assay (THERMO SCIENTIFIC™, Rockford, Ill.). […] As a loading control, total protein per sample was determined using BIO-RAD™ Stain Free SDS-PAGE gel technology. UV-activated protein fluorescence was imaged on a CHEMIDOC™ MP (BIO-RAD™). […] The volume (intensity) of each protein species was determined and normalized to total protein using Image Lab software (BIO-RAD™). […]

[2] = system: cathepsin B; assay: Western immunoblotting, cathepsin B; assay type: in vivo, rat; conditions: aged rats; oral 8-AG 5 mg/kg/day, 6 weeks
Procedure: Western immunoblotting: Following the testing paradigms, rats were deeply anesthetized, bladders as well as the proximal urethra were removed, and one half of each preparation was homogenized using Lysing Matrix D in a FastPrep 24 instrument (MP Biomedicals, Solon, Ohio) in HBSS [5 mM KCl, 0.3 mM KH2PO4, 138 mM NaCl, 4 mM NaHO3, 0.3 mM Na2HCO3, 0.3 mM Na2HPO4, 5.6 mM glucose, and 10 mM Hepes, pH 7.4 containing a complete protease inhibitor cocktail (1 tablet/10 ml, ROCHE®, Indianapolis, Ind.) and a phosphatase inhibitor cocktail (SIGMA®, 1:100)]. After centrifugation (13000 rpm; 15 min at 4° C.), the membrane protein fraction was prepared by suspending the membrane pellets in lysis buffer containing 0.3 M NaCl, 50 mM Tris-HCl (pH 7.6), and 0.5% Triton X-100 and the same concentration of protease inhibitors as above. The suspensions were incubated on ice and centrifuged (13000 rpm; 15 min at 4° C.). The protein concentrations of the combined supernatants were determined using the PIERCE® BCA protein assay (THERMO SCIENTIFIC®, Rockford, Ill.). […] As a loading control, total protein per sample was determined using Bio-Rad Stain Free SDS-PAGE gel technology. UV-activated protein fluorescence was imaged on a CHEMIDOC® MP (BIO-RAD®). […] The volume (intensity) of each protein species was determined and normalized to total protein using Image Lab software (BIO-RAD®). […]

Nc1nc2[nH]c(N)nc2c(=O)[nH]1 [8-AG, 8-Aminoguanine]
senescence marker p16 in bladder smooth muscle ([1]; aged Fisher 344 rats, 8-AG 5 mg kg/day via drinking water, 1 month): restored to a younger state; also recorded: restored to levels similar to the younger state | senescence marker p16 in detrusor smooth muscle ([1]; aged rats, oral 8-AG 5 mg/kg/day, 6 weeks): levels similar to the younger state; also recorded: restored these biomarkers to that of a younger state | cathepsin B expression in urethra [2]: trend toward reversal
